By IC50 is commonly meant the concentration that inhibits the measured activity by half. The low end stands for higher potency, the high end for lower potency.

SMILES strings stand for the structures. Entries after “also recorded” stand apart in the source; their conditions may differ.

The subject of one series is 2,3-DPG blood levels. As to the kind of experiment: Phase 1: blood 2,3-DPG levels in SCD patients. It counts as in vivo, human. As to the method: In this study, SAD/MAD cohorts are randomized (3 to 1) to receive Compound 1 or placebo (P). Compound 1 was evaluated first in 4 healthy SAD cohorts and 4 healthy MAD (14-day dosing period) cohorts. Based on the safety, and PK/PD profile from HS, Compound 1 is then evaluated in 1 SCD SAD cohort and 2 SCD MAD cohorts. Specifically, based on the safety and pharmacokinetic/pharmacodynamics (PK/PD) profile in healthy volunteer studies, Compound 1 is evaluated in patients (pts) with SCD, first in a single dose (SD or SAD) cohort and then in multiple-dose (MD or MAD) cohorts (14-day and 12-week). Safety assessments include AEs, vital signs, ECGs and laboratory parameters. PK/PD blood sampling was performed on Day 1 (SAD/MAD) and Day 14 (MAD) and up to 72 h after the last dose and at the end-of-study visit. PD parameters included 2,3-DPG, ATP, and p50 in all cohorts with additional PD studies (including oxygen scan) performed only in the SCD cohorts. […]
The following table reports the mean percentage change in 2,3-DPG blood levels, relative to baseline, measured over time in SCD patients after a single dose of Compound 1 (700 mg):
The following table reports the mean percentage change in 2,3-DPG blood levels, relative to baseline, measured over time after the first dose on days 1 and 14 in SCD patients who received daily doses of Compound 1 (300 mg QD) for 14 days: […]

The test system of series [1] is estradiol and testosterone levels. Kind of series: Circulating estradiol and testosterone in healthy subjects, 14 days. It counts as in vivo, human. To be noted: up to 14 days, 100-300 mg BID, 400 mg QD. As for the experimental part:
Effects on circulating levels of estradiol and testosterone in male and female healthy subjects receiving Compound 1 or placebo for a treatment period of 14 days were evaluated. Compound 1 was administered twice daily (BID) at dose levels of 100 mg, 200 mg, and 300 mg, and once daily (QD) at a dose level of 400 mg. Each dosing cohort was comprised of 9 subjects treated with Compound 1 and 3 subjects treated with placebo. Testosterone and estradiol levels were assessed prior to dosing (baseline), and then on days 8, 14 and 17.

A short description of series [2]: Phase 1 SAD/MAD/food effect: plasma pharmacokinetics in healthy volunteers. It counts as in vivo, human. The text has this:
(§1) This is a first-in-human (FIH), Phase 1 study of Compound 1 that will characterize the safety, PK, and PD of Compound 1 after a single dose and after repeated dosing first in healthy adult volunteers and then in adolescents or adults with sickle cell disease. Initially, a dose range of Compound 1 in single ascending dose (SAD) escalation cohorts will be explored in healthy subjects. Enrollment of healthy subjects into 2-week multiple ascending dose (MAD) escalation cohorts will be initiated once the safety and PK from at least two SAD cohorts is available to inform the doses for the 2-week MAD portion of the study. The MAD cohorts will then run in parallel to the single dose cohorts. A single dose cohort is planned to understand food effects (FE) on the PK of Compound 1. […] Multiple dose studies in SCD subjects will then be initiated upon completion of MAD studies in healthy volunteers. Compound 1 will be administered in 25 mg and 100 mg tablets delivered orally, prepared as described in Example 1, Step 7.
(§2) In this study, SAD/MAD cohorts are randomized (3 to 1) to receive Compound 1 or placebo (P). Compound 1 was evaluated first in 4 healthy SAD cohorts and 4 healthy MAD (14-day dosing period) cohorts. Based on the safety, and PK/PD profile from HS, Compound 1 is then evaluated in 1 SCD SAD cohort and 2 SCD MAD cohorts. Specifically, based on the safety and pharmacokinetic/pharmacodynamics (PK/PD) profile in healthy volunteer studies, Compound 1 is evaluated in patients (pts) with SCD, first in a single dose (SD or SAD) cohort and then in multiple-dose (MD or MAD) cohorts (14-day and 12-week). Safety assessments include AEs, vital signs, ECGs and laboratory parameters. PK/PD blood sampling was performed on Day 1 (SAD/MAD) and Day 14 (MAD) and up to 72 h after the last dose and at the end-of-study visit. PD parameters included 2,3-DPG, ATP, and p50 in all cohorts with additional PD studies (including oxygen scan) performed only in the SCD cohorts. PD parameters included 2,3-DPG, ATP, p50, RBC deformability with controlled deoxygenation and reoxygenation (Lorrca® oxygen scan) and varying osmolality (Lorrca® osmoscan)). To maintain study blind, pt identifiers were removed when needed.
Primary Outcome Measures: • 1. Incidence, frequency, and severity of adverse events (AEs) per CTCAE v5.0 of a single ascending dose and multiple ascending doses of Compound 1 in adult healthy volunteers and SCD patients. Incidence of abnormal laboratory test results (clinical chemistry, endocrine hematology, urinalysis). Change from baseline in vital signs (blood pressure, respiratory rate, heart rate, and oral temperature). Incidence of treatment-emergent clinically significant abnormal findings in ECGs. • [Time Frame: Up to 3 weeks of monitoring] • 2. […] Area under the plasma concentration-time curve from time zero until the 24-hour time point (AUC0-24) • [Time Frame: Up to 3 weeks of testing] • 5. Area under the plasma concentration-time curve from time zero until last quantifiable time point (AUC0-last) • [Time Frame: Up to 3 weeks of testing] • 6. Area under the plasma concentration-time curve from time zero to infinity (AUC0-inf) • [Time Frame: Up to 3 weeks of testing] • 7. […] Apparent volume of distribution (Vd/F) • [Time Frame: Up to 3 weeks of testing] • 10. Terminal disposition rate constant (Lz) • [Time Frame: Up to 3 weeks of testing] • 11.
Four healthy SAD cohorts were evaluated at doses of 200, 400, 700, and 1000 mg, and four healthy MAD cohorts received 200 to 600 mg total daily doses for 14 days at QD or BID dosing (100 mg BID, 200 mg BID, 300 mg BID, and 400 mg QD). In the food effect (FE) cohort, 10 healthy subjects received 400 mg of Compound 1 QD with and without food.

The next series deals with T1, CYP2C19 (Homo sapiens, UniProt P33261).
T1 construct: from tissue; host or cells: human liver microsomes
T1 sequence (P33261 whole entry): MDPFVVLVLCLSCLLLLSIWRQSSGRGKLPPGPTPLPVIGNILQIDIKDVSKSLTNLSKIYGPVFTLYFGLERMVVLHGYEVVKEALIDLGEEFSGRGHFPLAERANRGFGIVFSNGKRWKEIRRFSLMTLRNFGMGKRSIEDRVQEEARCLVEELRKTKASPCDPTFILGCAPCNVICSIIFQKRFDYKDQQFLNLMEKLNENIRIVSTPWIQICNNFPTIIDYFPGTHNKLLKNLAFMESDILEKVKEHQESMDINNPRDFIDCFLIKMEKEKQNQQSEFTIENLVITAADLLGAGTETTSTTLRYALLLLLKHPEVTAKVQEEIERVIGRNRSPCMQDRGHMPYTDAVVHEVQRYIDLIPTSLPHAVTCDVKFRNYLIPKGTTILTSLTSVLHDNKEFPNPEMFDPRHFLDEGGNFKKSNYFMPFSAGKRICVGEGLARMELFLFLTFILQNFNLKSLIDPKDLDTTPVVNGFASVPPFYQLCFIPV
As to the kind of experiment: Single substrate DDI assay, reversible CYP inhibition in human liver microsomes. It counts as in vitro ADME. Background: Microsomes from liver hold many membrane-bound enzymes, among them those of drug oxidation.

Series [3] is described as follows: Phase 1: plasma pharmacokinetics in SCD patients. It counts as in vivo. To be noted: human, oral, SCD (N = 5), single dose 700 mg.
From the text: as §1, §2
A potential exposure to the maximum PD response dose range to evaluate in patients with SCD was identified. Based on the safety and PK/PD profile in healthy volunteer studies, a 700 mg single dose was evaluated in patients with SCD (n=7). A single 700 mg dose of Compound 1 was selected to evaluate in patients with SCD to enable daily dosing cohorts at lower exposures.
In the SCD single dose cohort, seven patients received either Compound 1 (n=5) or placebo (n=2).

Setting [4] is: human, plasma, oral, HV (N = 6), single dose 700 mg, geometric mean (geometric CV).

For the molecule `O=C([C@H](CO)c1ccccc1)N1CC2=C(C1)CN(S(=O)(=O)c1cnc3c(c1)OCCO3)C2` (single isomer, unassigned) [Compound 1], the “Mean percentage change in 2,3-DPG blood levels” value in the series on 2,3-DPG blood levels (SCD patients, single dose 700 mg, 0 h after dose) was −0%. Moreover, in the series with 2,3-DPG blood levels (SCD, single 700 mg dose (FIG. 54B)), the “lag of maximum 2,3-DPG decrease behind maximum plasma concentration” value is listed as “about 24 hours”. Also, the “effect on testosterone and estradiol levels” value in series [1] is “No effect; also recorded: no statistically significant changes”. In addition, the “exposure under fed/fasted conditions” value in series [2] (food effect cohort, 400 mg) is “similar”. Besides, the “PK linearity and time dependence” value in series [2] (healthy subject studies) is “linear and time-independent PK”. Besides, the “observed clearance on day 1 and day 14” value in series [2] (healthy subjects, 14 days of dosing) was “unchanged”. The half-life in series [2] (human, plasma, oral, 700 mg, HV (N = 6), single dose 700 mg, geometric mean (geometric CV), read-out: t1/2 (converted)) was 13.3 h; in series [2] (human, plasma, oral, biphasic PK profile, read-out: terminal half-life) it was 12 to 14 h; in series [2] (human, plasma, oral, healthy volunteers, single doses up to 700 mg, read-out: T1/2), 11 to 15 h; in series [2] (human, plasma, oral, HS and SCD subjects similar, read-out: T½), 10 to 13 h; in series [3] (geometric mean (geometric CV)), 14.9 h. Moreover, the AUC(0-t) in series [2] (human, plasma, oral, HS and SCD subjects similar, read-out: AUC0-24) is roughly 7000 ng·h/mL. The AUC(0-inf) in series [2] (setting [4]) was found to be 7000 ng·h/mL; in series [3] (geometric mean (geometric CV)) it was 7300 ng·h/mL. The Cmax in series [2] (setting [4]) amounted to 2200 ng/mL; in series [3] (geometric mean (geometric CV)), 2580 ng/mL. Also, the Tmax in series [2] (human, plasma, oral, HV (N = 6), single dose 700 mg, median [min, max]) was found to be 0.5 h; in series [3] (median [min, max]) it was 2 h. At CYP2C19, this molecule returned an IC50 greater than 30 µM.

The values above are taken from patent US20220087983A1, “ACTIVATING PYRUVATE KINASE R” (FORMA Therapeutics, Inc., priority 2020, published 2022).
